In brackets after ≈: the same amount, converted by molar mass. Residues, ends and D or L forms follow the SMILES beside them. *: point of attachment. βNA = c1ccc2cc(N*)ccc2c1
Experiments:
Assay type in all cases: functional
Citrobacter werkmanii [1] = experiment: Antimicrobial activity against Citrobacter werkmanii isolate CIT3 harboring parC Leu88Gln mutant and qnrB12 gene by broth macrodilution method
Escherichia coli [2] = experiment: Antimicrobial activity against Escherichia coli TOP10 harboring empty vector pCR-Blunt2-TOPO by broth macrodilution method
Citrobacter werkmanii [3] = experiment: Antimicrobial activity against Citrobacter werkmanii isolate CIT2 harboring qnrB12 gene by broth macrodilution method
Escherichia coli [4] = experiment: Antimicrobial activity against Escherichia coli TOP10 by broth macrodilution method in presence of 64 ug/ml Phe-Arg-beta-naphthylamide
Escherichia coli [5] = experiment: Antimicrobial activity against Escherichia coli TOP10 harboring pCR-Blunt2-TOPO carrying qnrB12 gene of Citrobacter werkmanii isolate CIT1 by broth macrodilution method in presence of 64 ug/ml Phe-Arg-beta-naphthylamide
Citrobacter werkmanii [6] = experiment: Antimicrobial activity against Citrobacter werkmanii isolate CIT2 harboring qnrB12 gene by broth macrodilution method in presence of 64 ug/ml Phe-Arg-beta-naphthylamide
Escherichia coli [7] = experiment: Antimicrobial activity against Escherichia coli TOP10 by broth macrodilution method
Escherichia coli [8] = experiment: Antimicrobial activity against Escherichia coli TOP10 harboring pCR-Blunt2-TOPO carrying qnrB12 gene of Citrobacter werkmanii isolate CIT3 by broth macrodilution method in presence of 64 ug/ml Phe-Arg-beta-naphthylamide
Citrobacter werkmanii [9] = experiment: Antimicrobial activity against Citrobacter werkmanii isolate CIT3 harboring parC Leu88Gln mutant gene and qnrB12 gene by broth macrodilution method in presence of 64 ug/ml Phe-Arg-beta-naphthylamide
Escherichia coli [10] = experiment: Antimicrobial activity against Escherichia coli TOP10 harboring pCR-Blunt2-TOPO carrying qnrB12 gene of Citrobacter werkmanii isolate CIT3 by broth macrodilution method
Escherichia coli [11] = experiment: Antimicrobial activity against Escherichia coli TOP10 harboring pCR-Blunt2-TOPO carrying qnrB12 gene of Citrobacter werkmanii isolate CIT1 by broth macrodilution method
Citrobacter werkmanii [12] = experiment: Antimicrobial activity against nalidixic acid-resistant Citrobacter werkmanii isolate CIT1 harboring gyrA Thr83Ile, parC Ser57Thr mutant gene and qnrB12 gene by broth macrodilution method
Escherichia coli [13] = experiment: Antimicrobial activity against Escherichia coli TOP10 harboring pCR-Blunt2-TOPO carrying qnrB12 gene of Citrobacter werkmanii isolate CIT2 by broth macrodilution method
Citrobacter werkmanii [14] = experiment: Antimicrobial activity against nalidixic acid-resistant Citrobacter werkmanii isolate CIT1 harboring gyrA Thr83Ile, parC Ser57Thr mutant gene and qnrB12 gene by broth macrodilution method in presence of 64 ug/ml Phe-Arg-beta-naphthylamide
Escherichia coli [15] = experiment: Antimicrobial activity against Escherichia coli TOP10 harboring empty vector pCR-Blunt2-TOPO by broth macrodilution method in presence of 64 ug/ml Phe-Arg-beta-naphthylamide
Escherichia coli [16] = experiment: Antimicrobial activity against Escherichia coli TOP10 harboring pCR-Blunt2-TOPO carrying qnrB12 gene of Citrobacter werkmanii isolate CIT2 by broth macrodilution method in presence of 64 ug/ml Phe-Arg-beta-naphthylamide

Row | Compound | MIC (Citrobacter werkmanii [1]) [µg/mL] | MIC (Escherichia coli [2]) [µg/mL] | MIC (Citrobacter werkmanii [3]) [µg/mL] | MIC (Escherichia coli [4]) [µg/mL] | MIC (Escherichia coli [5]) [µg/mL] | MIC (Citrobacter werkmanii [6]) [µg/mL] | MIC (Escherichia coli [7]) [µg/mL] | MIC (Escherichia coli [8]) [µg/mL] | MIC (Citrobacter werkmanii [9]) [µg/mL] | MIC (Escherichia coli [10]) [µg/mL] | MIC (Escherichia coli [11]) [µg/mL] | MIC (Citrobacter werkmanii [12]) [µg/mL] | MIC (Escherichia coli [13]) [µg/mL] | MIC (Citrobacter werkmanii [14]) [µg/mL] | MIC (Escherichia coli [15]) [µg/mL] | MIC (Escherichia coli [16]) [µg/mL]
1 | O=C(O)c1cn(C2CC2)c2cc(N3CCNCC3)c(F)cc2c1=O [CIPROFLOXACIN] | 0.0625 (≈ 0.189 µM) | 0.00195 (≈ 0.00589 µM) | 0.5 (≈ 1.51 µM) | 0.00195 | 0.0625 | 0.0312 | 0.00195 (≈ 0.00589 µM) | 0.0625 | 0.0312 | 0.0625 (≈ 0.189 µM) | 0.0625 (≈ 0.189 µM) | 1 (≈ 3.02 µM) | 0.0625 (≈ 0.189 µM) | 0.25 | 0.00195 | 0.0625
2 | CCn1cc(C(=O)O)c(=O)c2ccc(C)nc21 [NALIDIXIC ACID] | 8 (≈ 34.4 µM) | 2 (≈ 8.61 µM) | 8 (≈ 34.4 µM) | 0.25 | 1 | 0.5 | 2 (≈ 8.61 µM) | 1 | 0.25 | 8 (≈ 34.4 µM) | 8 (≈ 34.4 µM) | > 256 | 8 (≈ 34.4 µM) | 16 | 0.25 | 1
3 | N=C(N)NCCC[C@H](NC(=O)[C@@H](N)Cc1ccccc1)C(=O)Nc1ccc2ccccc2c1 [PABETAN] (H-Phe-Arg-βNA) | 256 (≈ 573 µM) | > 256 | 256 (≈ 573 µM) |  |  |  | > 256 |  |  | > 256 | > 256 | > 256 | > 256 |  |  | 

From ChEMBL document CHEMBL1255237, “Novel variant of the qnrB gene, qnrB12, in Citrobacter werkmanii” (2008)
